Test results taken from patent EP4759810A1, “PROTAC TARGETING BCL-XL PROTEIN AND USE THEREOF” (BEIJING SUNCELL BIO-MEDICAL CO., LTD., priority 2023, dated 2025).

Key:
[1] = Metabolic stability assay in liver microsomes (mouse); format: in vitro ADME
In short: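 Human or mouse liver microsomes at 0.5 mg/mL with 1 µM compound at 37 °C, plus or minus NADPH; samples at 0–60 min quenched in cold acetonitrile with internal standards, analysed by LC-MS/MS. Half-life and intrinsic clearance from linear fit of ln % remaining versus time.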

Molt-4 cells = assay: Detection of E3 enzyme-dependence: Molt-4 cell killing with or without pomalidomide (CCK-8); format: cell-based; conditions: 10 µM pomalidomide, Figure 2
MRC5 cells = assay: Senescent cell killing activity test, MRC5 cell model (CCK-8); format: cell-based, human
Procedure: (§1) To avoid replication of the induced senescent cells, low-passage proliferating HEF cells (<10 passages), MRC5 cells (<6 passages), and BJ cells (<10 passages) were used as normal controls. For chemical drug induced senescence, HEF cells were treated with 10 µM etoposide (Selleck, S1225) for 36-48 hours, MRC5 cells were treated with 5 µM bleomycin (Selleck, S1225) for 72 hours, and BJ cells were treated with 10 µg/mL bleomycin for 72 hours. Three days after the treatment, the cells were subcultured in fresh culture medium at a 1:3 ratio for 72 hours before further analysis and use.
(§2) Non-senescent and induced-senescent HEF cells, non-senescent and induced-senescent MRC5 cells, and non-senescent and induced-senescent BJ cells were respectively digested with trypsin, and centrifuged at 1000 rpm for 5 minutes. Then, the supernatant was removed, and the cells were resuspended in fresh DMEM culture medium containing 10% fetal bovine serum for counting. The cell density was adjusted so that the non-senescent cell density was 4000 cells/100 µL and the senescent cell density was 7000 cells/100 µL. 100 µL of the cell suspension was added to each well of a 96-well transparent cell culture plate. It was noted that the edge wells of the 96-well plate were not used as testing wells, and 300 µL of PBS alone was added to these wells to reduce evaporation of the culture medium. The 96-well plates with the well-plated cells were placed back in a 37°C incubator for overnight culture until the cells adhered. On the next day, the small molecule compounds to be tested were prepared and added after the cells had adhered.
(§3) A series of small molecule concentration gradients (0.01, 0.03, 0.1, 0.3, 1, 3, 10, and 25 µM) were pre-set, and a series of 2× drug dilutions for the above concentrations were prepared in DMEM culture medium containing 10% fetal bovine serum. 100 µL of the above DMEM culture medium containing the gradient concentrations of the drug was added to each well of the 96-well plate that had been well-plated with cells, so that the final drug concentration in each well was the pre-set series of concentrations. Three replicate wells were used for each test drug concentration. The 96-well plates were placed back in a 37°C incubator, and cell viability was measured after three days.
(§4) Three days after adding the drug, the plates were taken out, and the supernatant was discarded. 100 µL of pre-prepared CCK-8 working solution was added to each well. The CCK-8 working solution was obtained through diluting a CCK-8 stock solution (C0041, Beyotime) with a serum-free DMEM culture medium by 10-fold volumn. The 96-well plates containing the CCK-8 working solution were placed back in the 37°C incubator and incubated for 0.5-2 hours. The plates were then taken out, and the absorbance value (OD value) of each well was measured at a wavelength of 450 nm. The cell viability in each experimental group was calculated according to the following formula: Relative cell viability (%) = (Blank control group - Experimental group) / Blank control group × 100%.

BJ cells = assay: Senescent cell killing activity test, BJ cell model (CCK-8); format: cell-based, human; conditions: Figures 3M-3O
Procedure: as §1, §2, §3, §4

[2] = mouse liver microsomes 0.5 mg/mL, 1 µM compound, 37°C

O=C1CCC(N2C(=O)c3cccc(NCCN4CCC(CN5CCN(CC#Cc6ccc(OCCCc7ccc(N8CCc9cccc(C(=O)Nc%10nc%11ccccc%11s%10)c9C8)nc7C(=O)O)c(F)c6)CC5)CC4)c3C2=O)C(=O)N1 (stereo not drawn) [APQ2]
Clint [1, 2]: 4.30 µL/min/mg protein
half-life at 1 µM [1, 2]: 5.37 h
microsomal CLint at 1 µM ([1]; mouse liver microsomes, read-out: clearance rate (metabolic clearance rate)): 4.3 µL/min/mg
cell killing activity after addition of pomalidomide (+poma) compared to without (-poma) (Molt-4 cells): significantly reduced cell killing activity

O=C1CCN(c2ccc(N3CCC(CN4CCN(CC#Cc5ccc(OCCCc6ccc(N7CCc8cccc(C(=O)Nc9nc%10ccccc%10s9)c8C7)nc6C(=O)O)c(F)c5)CC4)CC3)cc2)C(=O)N1 [APQ10]
activity for killing senescent cells at lower concentrations compared to A-1331852 (MRC5 cells; 0.01 µM and 0.03 µM): superior to that of A-1331852
selectivity for senescent cells (MRC5 cells; Figures 3G-3L): better selectivity for senescent cells
cell killing activity after addition of pomalidomide (+poma) compared to without (-poma) (Molt-4 cells): significantly reduced cell killing activity
killing effects for senescent cells (BJ cells; bleomycin-induced senescent skin-derived BJ cell model): highly selective and potent killing effects for senescent cells
killing effect for the normal early-passage BJ cells (BJ cells; normal BJ cells): without significant killing effect for the normal early-passage BJ cells
